Structures can show the parent of a compound that is named as a salt. Where two headings read alike, the source gives them in different places.
Molecular target: T1, Rat brain protein farnesyltransferase (Rattus norvegicus, UniProt Q02293+Q04631)
T1 construct: Rat brain protein farnesyltransferase activity is measured; from tissue; host or cells: rat brain
Test: % inhibition of farnesylation, scintillation proximity assay with biotin-K Ras B fragment
Format: biochemical
Details: for inhibition at 1 µM: read-out: % inhibition at 1 × 10^-6 M; for % inhibition at 1 × 10^-5 M: Table 1
Description: The ability of the compounds of the invention to inhibit protein farnesyltransferase or protein geranylgeranyltransferase can be measured according to the method of Moores, et al., J. Biol. Chem. 266: 14603 (1991) or the method of Vogt, et al., J. Biol. Chem. 270:660-664 (1995). In addition, procedures for determination of the inhibition of farnesylation of the oncogene protein Ras are described by Goldstein, et al., J. Biol. Chem., 266:15575-15578 (1991) and by Singh in U.S. Pat. No. 5,245,061.
In addition, in vitro inhibition of protein farnesyltransferase may be measured by the following procedure. Rat brain protein farnesyltransferase activity is measured using an Amersham Life Science commercial scintillation proximity assay kit and substituting a biotin-K Ras B fragment (biotin-[…]CO2 H), 0.1 mM final concentration, for the biotin-lamin substrate provided by Amersham. The enzyme is purified according to Reiss, Y., et al., Cell, 62: 81-88 (1990), utilizing steps one through three.
The % inhibition of protein farnesyltransferase was determined for representative compounds of the invention.

[1] = read-out: % inhibition at 1 × 10^-7 M, Table 3, 1 × 10^-7 M
[2] = read-out: % inhibition at 1 × 10^-7 M

T1 sequence (Q02293 whole entry, one chain of several): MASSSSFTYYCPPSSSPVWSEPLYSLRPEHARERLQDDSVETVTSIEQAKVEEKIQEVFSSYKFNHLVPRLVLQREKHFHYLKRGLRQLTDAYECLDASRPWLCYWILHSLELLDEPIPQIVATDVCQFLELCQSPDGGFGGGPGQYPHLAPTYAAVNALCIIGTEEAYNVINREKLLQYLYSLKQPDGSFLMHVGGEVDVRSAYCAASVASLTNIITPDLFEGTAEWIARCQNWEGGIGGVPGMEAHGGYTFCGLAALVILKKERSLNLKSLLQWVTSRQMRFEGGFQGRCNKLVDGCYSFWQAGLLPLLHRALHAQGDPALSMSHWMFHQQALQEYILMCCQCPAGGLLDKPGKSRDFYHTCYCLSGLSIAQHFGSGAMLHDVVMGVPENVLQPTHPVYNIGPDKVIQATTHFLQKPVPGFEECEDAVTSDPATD

CCS(=O)(=O)C[C@H](CC1CCCCC1)NCc1ccc(C(=O)N[C@@H](CCS(C)(=O)=O)C(=O)O)c(-c2ccccc2C)c1 [Example 621]
% inhibition at 1 × 10^-7 M (Table 3, 1 × 10^-7 M): 98%

CSCC[C@H](NC(=O)c1ccc(S(=O)(=O)NCCN2CCCCC2)cc1-c1ccccc1C)C(=O)O [Example 774]
% inhibition at 1 × 10^-6 M (Table 2, 1 × 10^-6 M): 48%

CSCC[C@H](NC(=O)c1ccc(CNCC(=O)N(Cc2ccccc2)Cc2ccccc2)cc1-c1ccccc1C)C(=O)O [Example 914]
% inhibition at 1 × 10^-7 M (Table 3, 1 × 10^-7 M): 91%

CSCC[C@H](NC(=O)c1ccc(CSC2CCCCC2)cc1-c1ccccc1C)C(=O)O [Example 550, N-[4-cyclohexylthiomethyl-2-(2-methylphenyl)benzoyl]methionine, lithium salt]
inhibition at 1 µM: 96%

CCSC[C@H](CC1CCCCC1)N(C)Cc1ccc(C(=O)N[C@@H](CCSC)C(=O)O)c(-c2ccccc2C)c1 [Example 944]
% inhibition at 1 × 10^-8 M (Table 4, 1 × 10^-8 M): 88%

CSCC[C@H](NC(=O)c1ccc(COCC2CCOC2)cc1-c1ccccc1)C(=O)O (stereo partly shown) [Example 287, [4-(3-tetrahydrofurylmethyloxymethyl)-2-phenylbenzoyl]methionine]
inhibition at 1 µM (Table 2, 1 × 10^-6 M): 24%

CSCC[C@H](NC(=O)c1ccc(COc2ccc3ccccc3c2)cc1-c1ccccc1C)C(=O)O [Example 573, N-[4-(naphth-2-yloxymethyl)-2-(2-methylphenyl)benzoyl]methionine]
inhibition at 0.1 µM [1]: 72%

CSCC[C@H](NC(=O)c1ccc(COCc2ccc(-c3ccc(N(C)C)cc3)o2)cc1-c1ccccc1C)C(=O)O [Example 821, N-[4-(5-(4-N,N-dimethylaminophenyl)furan-2-ylmethoxymethyl)-2-(2-methylphenyl)benzoyl]methionine lithium salt]
inhibition at 0.01 µM (read-out: % inhibition at 1 × 10^-8 M, Table 4, 1 × 10^-8 M): 75%

CSCC[C@H](NC(=O)c1ccc(COCCc2ccc3ccccc3c2)cc1-c1ccccc1C)C(=O)O [Example 593, N-[4-(2-naphth-2-ylethoxymethyl)-2-(2-methylphenyl)benzoyl]methionine lithium salt]
inhibition at 0.1 µM [2]: 86%

C=C[C@H](CC1CCCCC1)NCc1ccc(C(=O)N[C@@H](CCSC)C(=O)O)c(-c2ccccc2C)c1 [Example 619]
% inhibition at 1 × 10^-8 M (Table 4, 1 × 10^-8 M): 95%

CCSCC(CC1CCCCC1)NCc1cc(-c2ccccc2C)c(C(=O)N[C@@H](CCSC)C(=O)O)cc1OC (stereo partly shown) [Example 1337]
% inhibition at 0.01 μM (**) (Table 6, ** footnote 0.01 μM (title: 0.01 mM)): 83%

CSCC[C@H](NC(=O)c1ccc(CN(CCC2CCCCC2)S(=O)(=O)c2ccccc2)cc1-c1ccccc1C)C(=O)O [Example 612]
% inhibition at 1 × 10^-8 M (Table 4, 1 × 10^-8 M): 96%

CSCC[C@H](NC(=O)c1ccc(OCCC23CC4CC(CC(C4)C2)C3)cc1-c1ccccc1C)C(=O)O [Example 553, N-[4-(2-adamantan-1-ylethoxy)-2-(2-methylphenyl)benzoyl]methionine]
inhibition at 1 µM (Table 2, 1 × 10^-6 M): 92%

CSCC[C@H](NC(=O)c1ccc(CNC(CC2CCCCC2)C2CCCCC2)cc1-c1ccccc1C)C(=O)[O-].[Li+] (stereo partly shown) [Example 616]
% inhibition at 1 × 10^-7 M (Table 3, 1 × 10^-7 M): 95%

CSCC[C@H](NC(=O)c1ccc(S(=O)(=O)NCCN2CCOCC2)cc1-c1ccccc1C)C(=O)O [Example 775]
% inhibition at 1 × 10^-6 M (Table 2, 1 × 10^-6 M): 32%

CCCCC(OCc1ccc(C(=O)N[C@@H](CCSC)C(=O)O)c(-c2ccccc2C)c1)c1ccco1 (stereo partly shown) [Example 825, N-[4-(1-furan-2-ylpentyloxymethyl)-2-(2-methylphenyl)benzoyl]methionine lithium salt]
inhibition at 0.1 µM [2]: 79%

CCCCC(OCc1ccc(C(=O)N[C@@H](CCSC)C(=O)O)c(-c2ccccc2C)c1)c1cccc(OC)c1 (stereo partly shown) [Example 1208, N-[4-(1-(3-Methoxyphenyl)pentan-1-yloxymethyl)-2-(2-methylphenyl)benzoyl]methionine lithium salt]
inhibition at 0.1 µM (read-out: % inhibition at 0.1 μM (*)): 89%

CSCC[C@H](NC(=O)c1ccc(CN(Cc2ccc3c(c2)OCO3)c2cncnc2)cc1-c1ccccc1C)C(=O)O [Example 837]
% inhibition at 1 × 10^-8 M (Table 4, 1 × 10^-8 M): 91%

CSCC[C@H](NC(=O)c1ccc(COCc2ccc(-c3ccc(F)cc3)o2)cc1-c1ccccc1C(F)(F)F)C(=O)O [Example 872, N-[4-(5-(4-fluorophenyl)furan-2-ylmethoxymethyl)-2-(2-trifluoromethylphenyl)benzoyl]methionine Lithium salt]
inhibition at 1 µM (Table 2, 1 × 10^-6 M): 74%

CSCC[C@H](NC(=O)c1ccc(CCc2cccc(Oc3ccccc3)c2)cc1-c1ccccc1C)C(=O)[O-].[Li+] [Example 459]
% inhibition at 1 × 10^-7 M (Table 3, 1 × 10^-7 M): 92%

CSCC[C@H](NC(=O)c1ccc(COCc2ccsc2)cc1-c1ccccc1C)C(=O)O [Example 274, [4-(3-thienylmethoxymethyl)-2-(2-methylphenyl)benzoyl]methionine Lithium salt]
inhibition at 1 µM: 94%

CSCC[C@H](NC(=O)c1ccc(COCCc2ccc(Cl)cc2)cc1-c1ccccc1C)C(=O)O [Example 590, N-[4-(2-(4-chlorophenyl)ethoxymethyl)-2-(2-methylphenyl)benzoyl]methionine lithium salt]
inhibition at 0.1 µM [2]: 95%

CSCC[C@H](NC(=O)c1ccc(CNCCN2CCOCC2)cc1-c1ccccc1)C(=O)O [Example 365]
% inhibition at 1 × 10^-5 M: 97%

Cc1ccccc1-c1cc(CN(C)C(C)(C)CC2CCCCC2)ccc1C(=O)N[C@@H](CCS(C)(=O)=O)C(=O)O [Example 314]
% inhibition at 1 × 10^-6 M (Table 2, 1 × 10^-6 M): 97%

CSCC[C@H](NC(=O)c1ccc(COC(Cc2ccccc2)C2CCN(S(=O)(=O)c3ccccc3)CC2)cc1-c1ccccc1C)C(=O)O (stereo partly shown) [Example 1253, N-[4-(2-phenyl-1-(4-(N-phenylsulfonyl)piperidinyl)ethyloxymethyl-2-(2-methylphenyl)benzoyl]methioninelithium salt]
inhibition at 0.1 µM (read-out: % inhibition at 0.1 μM (*), Table 6, * footnote 0.1 μM (title: 0.1 mM)): 76%

CSCC[C@H](NC(=O)c1ccc(CN(Cc2ccccc2)c2cccc(Cl)c2)cc1-c1ccccc1C)C(=O)O [Example 847]
% inhibition at 1 × 10^-8 M (Table 4, 1 × 10^-8 M): 85%

CSCC[C@H](NC(=O)c1ccc(CNc2cccc(CO)c2)cc1-c1ccccc1)C(=O)O [Example 680]
% inhibition at 1 × 10^-5 M: 58%

CSCC[C@@H](C(=O)O)N(C)C(=O)c1ccc(COCCCC2CCCCC2)cc1-c1ccccc1C [Example 597, N-[4-(3-cyclohexylpropoxymethyl)-2-(2-methylphenyl)benzoyl]-N-methylmethionine lithium salt]
inhibition at 0.1 µM [2]: 75%

CSCC[C@H](NC(=O)c1ccc(CSc2nc3ccccc3[nH]2)cc1-c1ccccc1C)C(=O)O [Example 732]
inhibition at 0.1 µM [1]: 84%

CSCC[C@H](NC(=O)c1ccc(S(=O)(=O)N(Cc2ccccc2)c2ccccc2)cc1-c1ccccc1C)C(=O)[O-].[Li+] [Example 768]
% inhibition at 1 × 10^-6 M (Table 2, 1 × 10^-6 M): 67%

CSCC[C@H](NC(=O)c1ccc(CO[C@H](COC2CCC2)CC2CCCCC2)cc1-c1ccccc1C)C(=O)O [Example 1345]
inhibition at 0.01 µM (read-out: % inhibition at 0.01 μM (**), Table 6, ** footnote 0.01 μM (title: 0.01 mM)): 94%

CSCC[C@H](NC(=O)c1ccc(COCc2ccccc2C)cc1-c1ccccc1C)C(=O)O [Example 577, N-[4-(2-methylbenzyloxymethyl)-2-(2-methylphenyl)benzoyl]methionine lithium salt]
inhibition at 1 µM: 94%

CSCC[C@H](NC(=O)c1ccc(COCc2cccc(C(C)C)c2)cc1-c1ccccc1C)C(=O)O [Example 939, N-[4-(3-isopropylbenzyloxymethyl)-2-(2-methylphenyl)benzoyl]methionine lithium salt]
inhibition at 0.01 µM (read-out: % inhibition at 1 × 10^-8 M): 72%

CSCC[C@H](NC(=O)c1ccc(CNC(C)(C)CC2CCCCC2)cc1-c1ccccc1C)C(=O)O [Example 308]
% inhibition at 1 × 10^-6 M (Table 2, 1 × 10^-6 M): 62%

CSCC[C@H](NC(=O)c1ccc(COC(Cc2ccccc2)c2ccco2)cc1-c1ccccc1C)C(=O)O (stereo partly shown) [Example 534, N-[4-(1-furan-2-yl-2-phenylethoxymethyl)-2-(2-methylphenyl)benzoyl]methionine lithium salt]
inhibition at 0.1 µM [2]: 84%

CCSC[C@H](CC1CCCCC1)N(Cc1ccc(C(=O)N[C@@H](CCSC)C(=O)O)c(-c2ccccc2C)c1)C(=O)c1ccccc1 [Example 949]
% inhibition at 1 × 10^-7 M (Table 3, 1 × 10^-7 M): 57%

CSCC[C@H](NC(=O)c1ccc(COc2cccc3ccccc23)cc1-c1ccccc1C)C(=O)O [Example 574, N-[4-(naphth-1-yloxymethyl)-2-(2-methylphenyl)benzoyl]methionine]
inhibition at 0.1 µM [1]: 81%

CSCC[C@H](NC(=O)c1ccc(OC/C=C/c2ccccc2)cc1-c1ccccc1C)C(=O)O [Example 560, N-[4-(3-phenyl)prop-2-en-1-yloxy-2-(2-methylphenyl)benzoyl]methionine]
inhibition at 1 µM (Table 2, 1 × 10^-6 M): 91%

CSCC[C@H](NC(=O)c1ccc(COCc2ccco2)cc1-c1ccccc1C)C(=O)O [Example 299, [4-(2-furylmethyloxymethyl)-2-(2-methylphenyl)benzoyl]methionine]
inhibition at 1 µM (Table 2, 1 × 10^-6 M): 94%

CSCC[C@H](NC(=O)c1ccc(CN(CCC2CCCCC2)C2CC2)cc1-c1ccccc1C)C(=O)O [Example 880]
% inhibition at 1 × 10^-8 M (Table 4, 1 × 10^-8 M): 95%

— patent US6204293A, “Inhibitors of protein isoprenyl transferases” (University of Pittsburgh, priority 1998, dated 2001)
